These results are taken from article PMC7093421, “Perfluorooctane sulfonate (PFOS) and perfluorooctanoate (PFOA) acutely affect human α1β2γ2L GABAA receptor and spontaneous neuronal network function in vitro” (Scientific Reports, 2020).

The target of this assay is T1, human α1β2γ2L GABAA receptor (Homo sapiens, UniProt P14867+P18507+P47870).
T1 construct: gene GABRA1; α1β2γ2L receptor expressed in Xenopus laevis oocytes; with GABRB2 (β2) and GABRG2 (γ2L) subunits
Briefly: two-electrode voltage clamp in Xenopus oocytes, inhibition of GABA-evoked current ([…] GABA). Format: cell-based.

T1 sequence (P14867 28-456): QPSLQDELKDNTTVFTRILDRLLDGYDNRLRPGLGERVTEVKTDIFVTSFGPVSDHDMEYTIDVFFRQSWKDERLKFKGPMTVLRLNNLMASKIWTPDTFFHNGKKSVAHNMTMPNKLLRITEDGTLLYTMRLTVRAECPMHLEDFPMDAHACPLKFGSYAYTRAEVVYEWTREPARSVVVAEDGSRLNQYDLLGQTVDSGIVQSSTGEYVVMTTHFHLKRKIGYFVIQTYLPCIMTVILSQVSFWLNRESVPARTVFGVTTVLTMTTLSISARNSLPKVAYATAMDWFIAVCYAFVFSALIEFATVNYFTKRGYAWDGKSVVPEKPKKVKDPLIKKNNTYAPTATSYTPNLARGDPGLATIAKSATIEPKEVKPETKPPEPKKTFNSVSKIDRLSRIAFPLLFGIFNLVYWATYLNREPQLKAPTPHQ
T1 sequence (P47870 26-512): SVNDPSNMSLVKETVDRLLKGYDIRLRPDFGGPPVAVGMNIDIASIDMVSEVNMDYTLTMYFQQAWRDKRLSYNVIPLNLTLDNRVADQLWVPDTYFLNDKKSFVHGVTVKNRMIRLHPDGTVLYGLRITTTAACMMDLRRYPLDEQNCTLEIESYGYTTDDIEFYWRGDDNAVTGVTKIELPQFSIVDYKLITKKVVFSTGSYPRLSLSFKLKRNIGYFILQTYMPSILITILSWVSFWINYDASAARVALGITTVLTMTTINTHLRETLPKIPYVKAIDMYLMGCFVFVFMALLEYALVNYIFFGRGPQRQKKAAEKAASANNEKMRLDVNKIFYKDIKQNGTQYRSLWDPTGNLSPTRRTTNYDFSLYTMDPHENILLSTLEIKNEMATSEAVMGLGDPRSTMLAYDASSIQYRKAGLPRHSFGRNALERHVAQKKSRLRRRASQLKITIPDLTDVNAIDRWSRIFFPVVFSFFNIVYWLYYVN
T1 sequence (P18507 40-475): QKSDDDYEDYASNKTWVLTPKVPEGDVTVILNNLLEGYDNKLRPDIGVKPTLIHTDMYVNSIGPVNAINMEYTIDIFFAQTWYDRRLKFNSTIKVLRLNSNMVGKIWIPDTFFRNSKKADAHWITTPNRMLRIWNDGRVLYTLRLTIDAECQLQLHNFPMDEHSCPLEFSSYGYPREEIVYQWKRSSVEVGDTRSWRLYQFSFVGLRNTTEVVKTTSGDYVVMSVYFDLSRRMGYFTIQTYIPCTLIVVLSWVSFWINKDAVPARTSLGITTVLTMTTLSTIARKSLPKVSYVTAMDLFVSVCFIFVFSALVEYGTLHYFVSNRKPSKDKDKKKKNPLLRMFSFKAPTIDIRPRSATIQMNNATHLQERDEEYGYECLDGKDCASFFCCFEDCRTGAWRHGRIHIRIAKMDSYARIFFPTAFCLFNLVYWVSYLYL

The term IC50 denotes the point on the concentration scale where inhibition reaches its midpoint. A lower IC50 goes with greater potency. In the case of `O=S(=O)(O)C(F)(F)C(F)(F)C(F)(F)C(F)(F)C(F)(F)C(F)(F)C(F)(F)C(F)(F)F` [PFOS], it took 0.18 µM to reach half-maximal inhibition (IC50).

In turn, `O=C(O)C(F)(F)C(F)(F)C(F)(F)C(F)(F)C(F)(F)C(F)(F)C(F)(F)F` [PFOA] had an IC50 of 6.7 µM.
